In patent US11730817B2, “Pro-cyclic dinucleotides and pro-cyclic dinucleotide conjugates for cytokine induction” (INVIVOGEN, priority 2017, dated 2023):
pEC50: −log10 of the molar value.

What was measured:
[1] = biological target: PDL1 (Homo sapiens, UniProt Q9NZQ7); assay: Antigen binding ELISA of anti-PDL1mAb:CDN conjugate; conditions: relative to anti PDL1 at 10 μg/mL
From the text: We performed Whole Blood Assay on healthy human donors to evaluate the ability of the anti-PDL1mAb:CDN conjugate (Compound 47) to induce type I interferons as described previously in Example 2.2. The binding properties of the anti-PDL1mAb:CDN conjugate have been evaluated using ELISA.

[2] = system: Type I IFNs; assay: Whole-blood assay, type I IFN induction (HEK-Blue IFN-α/β-KO-STING readout); assay type: cell-based, human; conditions: relative to CL656 at 1 μM
[3] = biological target: STING (Homo sapiens, UniProt Q86WV6, G230A/H232R/R293Q/R71H); assay: ISG54 (IRF pathway) reporter assay in THP1-Dual cells
Chain of STING (Homo sapiens, UniProt Q86WV6, G230A/H232R/R293Q/R71H) (Q86WV6 whole entry R71H/G230A/H232R/R293Q): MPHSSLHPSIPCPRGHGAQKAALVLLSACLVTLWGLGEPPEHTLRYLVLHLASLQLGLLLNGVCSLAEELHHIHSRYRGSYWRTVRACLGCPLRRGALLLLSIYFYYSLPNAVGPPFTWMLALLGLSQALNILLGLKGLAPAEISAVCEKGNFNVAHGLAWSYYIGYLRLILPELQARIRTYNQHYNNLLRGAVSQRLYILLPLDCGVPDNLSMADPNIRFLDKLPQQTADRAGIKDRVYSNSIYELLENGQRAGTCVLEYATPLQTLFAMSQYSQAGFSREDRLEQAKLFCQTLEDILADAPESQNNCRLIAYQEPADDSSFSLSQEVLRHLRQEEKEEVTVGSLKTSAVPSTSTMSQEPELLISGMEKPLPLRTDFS

[4] = system: STING; assay: ISG activity of protein:CDN and antigen:CDN conjugates in reporter cell lines; assay type: cell-based
From the text: In the present invention, we evaluated using reporter cell lines the ISG activity of protein:CDN conjugates using in vitro conditions favorable to the release of both components.

[5] = Lipid-based nanoparticle formation (PdI, Z Ave); assay type: physicochemical; conditions: for Z Ave (nm): lipid BAM-CDN particles; for PdI: polydispersity index of lipid BAM-CDN
[6] = biological target: T1, STING (Mus musculus, UniProt Q3TBT3); assay: ISG reporter assay in RAW-Lucia ISG cells
T1 sequence (Q3TBT3 1-378): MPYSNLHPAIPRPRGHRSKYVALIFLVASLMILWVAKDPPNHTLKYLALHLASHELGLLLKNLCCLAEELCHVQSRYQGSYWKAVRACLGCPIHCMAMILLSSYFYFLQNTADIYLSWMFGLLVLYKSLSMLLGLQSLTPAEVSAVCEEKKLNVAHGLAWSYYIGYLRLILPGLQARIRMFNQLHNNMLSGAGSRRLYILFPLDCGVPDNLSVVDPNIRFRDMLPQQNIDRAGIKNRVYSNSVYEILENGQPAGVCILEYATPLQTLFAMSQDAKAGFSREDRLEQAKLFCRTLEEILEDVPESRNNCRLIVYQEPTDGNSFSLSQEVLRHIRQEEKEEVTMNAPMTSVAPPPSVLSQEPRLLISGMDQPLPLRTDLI

[7] = system: Type I IFNs; assay: Whole-blood assay, type I IFN induction (HEK-Blue IFN-α/β-KO-STING readout); assay type: cell-based, human; conditions: whole blood assay, type I IFN; read-out: EC50 (μM) IFN in WBA
From the text: Type I IFNs: HEK-Blue™ IFN-α/β-KO-STING: These cells, in which the STING gene has been inactivated, are derived from HEK293 cell line known as HEK-Blue™ IFN-α/β (InvivoGen catalog code: hkb-ifnab). HEK-Blue™ IFN-α/β cells enable detection of bioactive human type I IFNs through monitoring of activation of the […]. These cells were generated by stable transfection of HEK293 cells with the human STAT2 and IRF9 genes to obtain a fully active Type-I IFN signaling pathway. The other genes of the pathway (IFNAR1, IFNAR2, JAK1, TyK2 and STAT1) are naturally expressed in sufficient amounts. The cells were further transfected with a SEAP reporter gene under control of an IFNα/β-inducible ISG54 promoter. This promoter comprises five IFN-stimulated response elements (ISREs) fused to a minimal promoter of the human ISG54 gene, which is unresponsive to activators of the NF-κB or AP-1 pathways. Stimulation of HEK-Blue™ IFN-α/β cells with human IFN-α or IFN-β activates the JAK/STAT/ISGF3 pathway and subsequently induces production of SEAP. Production of type I IFNs in these cells is measured using QUANTI-Blue™.
Briefly, the samples were collected by venipuncture into sodium heparin tubes at the time of donation. The samples were analyzed for rhesus (Rh), blood group, hematocrit and serological status (AgHBS, HIV, HCV, HTLV, HBC, CMV, Syph). The tubes were picked up on the day of collection and subsequently tested (blood analysis, and treatment with test items) on the same day.
Each blood sample was diluted (1:2 [v/v]) in RPMI medium and aliquoted into 96-well plates (180-μL wells) containing either CDN (√10-fold serial dilution starting from 50 μM). The plates were incubated at 37° C. in a 5% CO2 incubator for 18 hours. Then, the supernatants were collected, transferred into the corresponding wells of round-bottom 96-well plates, and either stored at −80° C., or immediately tested in the appropriate reporter cell line.
A new 96-wells plate was prepared for each reporter cell lines tested, as follows: 10 μL of supernatant from the previous plate were added to the corresponding well in the new reporter cell plate. Then, a 190-μL aliquot of cells of the desired reporter cell line, previously harvested in medium containing heat-inactivated serum and counted, was added to each well (approximately 50,000 cells/well), and the plate was incubated for approximately 20 hours. The desired cytokine induction activity was determined using the QUANTI-Blue™ assay, as previously described. Briefly, 20 μL of supernatant from the previously incubated plate was transferred to the corresponding well of a new 96-well plate in which 180 μL of QUANTI-Blue™ reagent had previously been added.

Chain of PDL1 (Q9NZQ7 19-290, species assumed): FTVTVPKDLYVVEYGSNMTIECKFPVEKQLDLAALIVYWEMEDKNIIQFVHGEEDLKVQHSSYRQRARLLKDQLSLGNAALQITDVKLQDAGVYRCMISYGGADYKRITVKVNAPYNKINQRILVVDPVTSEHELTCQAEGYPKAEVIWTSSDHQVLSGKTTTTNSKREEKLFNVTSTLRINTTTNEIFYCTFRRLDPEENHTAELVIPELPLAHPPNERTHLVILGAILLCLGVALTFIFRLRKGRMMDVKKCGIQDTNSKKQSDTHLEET

Row | Compound | Antigen binding (% of anti PDL1 @ 10 μg/mL) [1] [%] | IFN activity @ 50 μg/mL in WBA (% of CL656 @ 1 μM) [2] [%] | pEC50 [3] | Fold ISG induction vs unstimulated @10 μM ([3]; 10 μM, THP1-Dual cells) [fold] | ISG activity @ 50 μg/mL (% of CL656 @ 1 μM) ([4]; antigen:CDN conjugates) [%] | ISG activity @ 50 μg/mL (% of parental CND @ 1 μM) ([4]; in vitro conditions favorable to release of both components) [%] | ISG activity compared with unmodified parental CDN ([3]; THP1-Dual cells) | Z Ave (nm) [5] [nm] | PdI [5] | ISG activity compared with unmodified parental CDN [6] | EC50 [7] [µM]
1 | Atezolizumab | 100 | 0 | – | – | – | – | – | – | – | – | –
2 | Nc1ncnc2c1ncn2[C@@H]1O[C@@H]2COP(=O)(S)O[C@H]3[C@@H](F)[C@H](n4cnc5c(=O)[nH]cnc54)O[C@@H]3COP(=O)(S)O[C@H]2[C@H]1F (some centres unmarked) [CL656, 3′3′-cAIM(PS)2 Difluor (Rp/Sp)] | – | 100 | 6.00 | 215 | 100 | 100 | – | – | – | – | –
3 | CCCCCCCCCCCCCCCC(=O)N[C@H](C(=O)N[C@@H](C)C(=O)Nc1ccc(CSP2(=O)OC[C@H]3O[C@@H](n4cnc5c(N)ncnc54)[C@H](F)[C@@H]3OP(=O)(O)OC[C@H]3O[C@@H](n4cnc5c(O)ncnc54)[C@H](F)[C@@H]3O2)cc1)C(C)C (some centres unmarked) [CL849] | – | – | – | – | – | – | higher ISG activity than the unmodified parental CDN | 152.4 | 0.56 | higher ISG activity than the unmodified parental CDN | –
4 | CCCCCCCCCCCCCCCC(=O)N[C@H](C(=O)N[C@@H](C)C(=O)Nc1ccc(CSP2(=O)OC[C@H]3O[C@@H](n4cnc5c(N)ncnc54)[C@H](F)[C@@H]3OP(=O)(S)OC[C@H]3O[C@@H](n4cnc5c(O)ncnc54)[C@H](F)[C@@H]3O2)cc1)C(C)C (some centres unmarked) [CL863] | – | – | – | – | – | – | higher ISG activity than the unmodified parental CDN | 106.6 | 0.416 | higher ISG activity than the unmodified parental CDN | 0.15
5 | CCCCCCCCCCCCCCCC(=O)N[C@H](C(=O)N[C@@H](CCCNC(N)=O)C(=O)Nc1ccc(CSP2(=O)OC[C@H]3O[C@@H](n4cnc5c(N)ncnc54)[C@H](F)[C@@H]3OP(=O)(O)OC[C@H]3O[C@@H](n4cnc5c(O)ncnc54)C[C@@H]3O2)cc1)C(C)C (some centres unmarked) [CL848] | – | – | – | – | – | – | higher ISG activity than the unmodified parental CDN | 84.3 | 0.18 | higher ISG activity than the unmodified parental CDN | 0.11
6 | CCCCCCCCCCCCCCCC(=O)N[C@H](C(=O)N[C@@H](CCCNC(N)=O)C(=O)Nc1ccc(CSP2(=O)OC[C@H]3O[C@@H](n4cnc5c(N)ncnc54)[C@H](F)[C@@H]3OP(=O)(S)OC[C@H]3O[C@@H](n4cnc5c(O)ncnc54)[C@H](F)[C@@H]3O2)cc1)C(C)C (some centres unmarked) [CL853] | – | – | – | – | – | – | higher ISG activity than the unmodified parental CDN | 155.9 | 0.188 | higher ISG activity than the unmodified parental CDN | 0.14
